Here are results for 1 compound from patent US7737144B2, “Pyrimido[5,4-e][1,2,4]triazine-5-7-diones, processes for preparing them and their use” (Sanofi-Aventis Deutschland GmbH, priority 2003, dated 2010).

The test concerns the target T1, recombinant human PTP1B (Homo sapiens, UniProt P18031).
T1 construct: without the carboxy terminal hydrophobic region (corresponding to 1-299 aa); FLAG (N); made in house; host or cells: Sf9 insect cells (baculovirus, Bac-to-Bac)
T1 sequence (P18031 1-299): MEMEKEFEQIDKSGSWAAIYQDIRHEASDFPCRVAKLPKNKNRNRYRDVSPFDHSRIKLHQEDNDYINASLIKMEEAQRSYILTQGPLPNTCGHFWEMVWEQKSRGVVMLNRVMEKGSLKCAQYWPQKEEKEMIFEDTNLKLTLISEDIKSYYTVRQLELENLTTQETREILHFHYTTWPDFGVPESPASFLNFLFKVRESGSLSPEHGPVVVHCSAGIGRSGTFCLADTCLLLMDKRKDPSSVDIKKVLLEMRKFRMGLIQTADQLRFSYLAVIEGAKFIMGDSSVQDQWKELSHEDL
The experiment in a line: Inhibiting phosphotyrosine phosphatase 1B (PTP1B), in-vitro phosphatase assay. To be noted: Table 2 Biological activity; substrate variant (phosphopeptide, p-nitrophenyl phosphate or DIFMUP) not stated. Type of test: biochemical. The text has this: Inhibiting Phosphotyrosine Phosphatase 1B (PTP1B)
The setting up and implementation of an in-vitro assay for detecting a phosphatase-inhibiting effect of the compounds according to the invention are described below. The isolation of the enzyme preparation and the implementation of the assay are described. […]
This assay is based on releasing phosphate from a consensus substrate peptide which is detected in the nanomolar concentration range using the malachite green/ammonium molybdate method (Lanzetta, P. A., Alvarez, L. J., Reinach, P. S., Candia, O. A. Anal Biochem. 100: 95-97, 1979) as adapted for the microtiter plate format. […] After incubating at 22° C. for 30 min, in order to develop the color, the absorption at 650 nm was determined using a microtiter plate reader (Molecular Devices). Samples and blanks were measured in triplicate. The PTP1B activity was calculated as nanomoles of phosphate released per min and mg of protein using potassium phosphate as the standard. The inhibition of the recombinant hPTP1B by test substances was calculated as percentages of the phosphatase control. […]

Usually IC50 stands for the concentration needed to halve the response being measured.

Consider `CCCCn1nc(-c2cccc(Oc3ccccc3)c2)nc2c(=O)n(C)c(=O)nc1-2` [compound 5], for which the IC50 is 5.2 µM.
